Experiments:
[1] = target: T1, PAR2 (Homo sapiens, UniProt P55085); assay: Intracellular calcium increase by trypsin (PAR2 receptor activation) in HaCaT keratinocytes; assay type: cell-based; parameters: endogenous in cells; host or cells: HaCaT keratinocytes; settings: HaCaT, 0.1 μM trypsin, 10 minutes pretreatment
T1 sequence (P55085 26-397): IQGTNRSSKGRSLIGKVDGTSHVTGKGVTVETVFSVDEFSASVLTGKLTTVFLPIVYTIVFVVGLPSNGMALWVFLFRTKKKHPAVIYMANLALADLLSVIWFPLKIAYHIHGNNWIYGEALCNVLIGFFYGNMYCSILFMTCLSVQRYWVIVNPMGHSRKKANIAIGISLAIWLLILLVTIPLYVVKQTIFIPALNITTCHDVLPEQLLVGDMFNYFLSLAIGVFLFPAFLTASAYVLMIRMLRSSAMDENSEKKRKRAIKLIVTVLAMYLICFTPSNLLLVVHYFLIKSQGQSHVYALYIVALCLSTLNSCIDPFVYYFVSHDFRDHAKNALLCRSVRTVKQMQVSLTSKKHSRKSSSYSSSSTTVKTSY
Method: After keratinocytes (HaCaT) were cultured for 48 hours in a 96-well micro plate with the DMEM culture medium, the culture medium was removed, and then, 100 μL of the Flou4-NW dye mixture was added. While blocking the light, it was stabilized for 1 hour such that a calcium ion dye (Ca^2+ dye) was loaded into the cells. 100 μM punicalagin was treated, and the concentration change of intracellular calcium ions was measured for 5 minutes (panel A of FIG. 17). Next, punicalin (0, 1, 3, 10, 20, 30, 100, and 300 μM) by concentration (panel B of FIG. 17) or punicalagin (0, 1, 3, 5, 10, 20, 30, and 100 μM) by concentration (panel C of FIG. 17) was treated for 10 minutes, and then, each well was treated with 0.1 μM trypsin to measure the concentration change of intracellular calcium ions according to PAR2 receptor activation.

[2] = system: C57BL6N mice with pruritus induced by PAR2-AP; assay: Pruritus induced by PAR2-AP in mice (number of scratches); assay type: in vivo
Method: In seven-week-old C57BL6N mice, it was confirmed whether punicalagin (PG) has an effect of alleviating pruritus symptoms induced by PAR2 receptor activation by PAR2-AP (activating peptide). In addition, the effects of punicalin (PNC) and ellagic acid (EA), which are metabolites of punicalagin and contained in pomegranate peel in a large amount, were also confirmed.
Specifically, each of 0, 1, 3, and 10 mg/kg punicalagin (n=4) was dissolved in physiological saline and intraperitoneally injected, and after 30 minutes, 100 μg of PAR2-AP was intradermally injected to induce pruritus. As control groups, a group which was intraperitoneally injected with physiological saline only (n=4) and a group which was intraperitoneally injected with 10 mg/kg punicalagin (n=4) were established, and the number of scratches was measured for 40 minutes.

[3] = target: T1, PAR2; assay: Increase of intracellular calcium ions by PAR2-AP in HT-29 cells (Fluo4-NW); assay type: cell-based; parameters: endogenous in cells; host or cells: HT-29 colon cancer cells
Method: After colon cancer cells (HT-29) were cultured for 48 hours in a 96-well micro plate with the RPMI1640 culture medium, the culture medium was removed, and then, 100 μL of the Flou4-NW dye mixture was added. While blocking the light, it was stabilized for 1 hour such that a calcium ion dye (Ca^2+ dye) was loaded into the cells. Next, after treating punicalin (0, 3, 10, and 30 μM), punicalagin (0, 0.3, 1, 2, 3, and 10 μM), or ellagic acid (0, 30, and 100 μM) for 10 minutes by concentration, each well was treated with 30 μM PAR2-AP (PAR2-activating peptide, SLIGRL-NH2) to measure the concentration change in intracellular calcium ions.

[4] = system: SD rats with acute pancreatitis induced by caerulein; assay: Acute pancreatitis induced by caerulein in rats; assay type: in vivo; settings: 10 mg/kg, 30 minutes before 40 μg/kg caerulein, pancreas extracted after 2 hours
Method: In 6-week-old SD rats, it was confirmed whether punicalagin has an effect of alleviating symptoms of acute pancreatitis induced by caerulein.
Specifically, […], and after 30 minutes, 40 μg/kg of caerulein, which is an acute pancreatitis-inducing substance, was intraperitoneally injected, and then, after 2 hours, the pancreas of the experimental animals was extracted and analyzed.
First, the weight of the extracted pancreas was measured to determine whether punicalagin inhibits edema, which is a symptom of acute pancreatitis. As a result, it was confirmed that when 10 mg/kg punicalagin was administered to […], in which acute pancreatitis was induced by caerulein, the edema of the pancreas was inhibited by 95% or more (panel A of FIG. 8).
Next, as a result of observing the nucleus and cytoplasm of the extracted pancreatic tissue with a microscope through H&E staining in order to confirm the damage to pancreatic cells by caerulein, it was confirmed that in the rats administered with caerulein, the distance between pancreatic cells was increased and the cells were damaged due to symptoms of acute pancreatitis.

SMILES: O=C1OC[C@H]2OC(O)[C@H](O)[C@@H](O)[C@@H]2OC(=O)c2cc(O)c(O)c(O)c2-c2c(O)c(O)c3oc(=O)c4c(c(O)c(O)c5oc(=O)c2c3c54)-c2c1cc(O)c(O)c2O (mixture of isomers) [punicalin, reference compound]
- inhibition of PAR2 receptor activity by trypsin [1]: inhibited PAR2 receptor activity by trypsin in a concentration-dependent manner
- number of scratches for 40 minutes ([2]; 10 mg/kg, PAR2-AP group about 240): about 197 times
- inhibitory effect on the PAR2 receptor ([3]; found by compound library search and molecular physiological experiments): relatively weak inhibitory effect

SMILES: O=c1oc2c(O)c(O)cc3c(=O)oc4c(O)c(O)cc1c4c23 [ellagic acid, reference compound]
- inhibition of edema of the pancreas (pancreas weight) [4]: not significantly inhibited
- numbers of scratches ([2]; 3 mg/kg ellagic acid group (n=3)): not significantly reduced
- inhibition of the PAR2 receptor ([3]; HT-29 cells, PAR2-AP, high concentration (100 μM)): did not inhibit

Reference: patent publication US11957699B2, “Composition comprising punicalagin for inhibiting PAR2 activity” (INDUSTRY-ACADEMIC COOPERATION FOUNDATION, YONSEI UNIVERSITY, priority 2018, dated 2024)
